Test results reported in patent publication US9708349B2, “Borates for photoactivated chemical bleaching” (GENERAL ELECTRIC COMPANY, priority 2015, dated 2017).

Assay: Stability of solid borate on exposure to air (1HNMR)

SMILES: c1ccc(C[B-](c2ccccc2)(c2ccccc2)c2ccccc2)cc1 [MBB, monobenzyltriphenyl borate]
- time to evidence of decomposition: < 10 min
